From US20120238576A1, “Triazine Derivatives and their Therapeutical Applications” (CALIFORNIA CAPITAL EQUITY, LLC, priority 2009, published 2012)

target: c-SRC (h) (Homo sapiens, UniProt P12931); experiment: Src Kinase Assay (33P-ATP filter-binding, Cdc2 peptide substrate); type: biochemical; details: compound at 10 μM; c-SRC (h) 5-10 mU, 40 minutes at room temperature
Procedure: This example illustrated Src Kinase Assays. Briefly, in a final reaction volume of 25 μL, c-SRC (h) (5-10 mU) is incubated with 8 mM MOPS pH 7.0, 0.2 mM EDTA, 250 μM KVEKIGEGTYGVVYK (Cdc2 peptide), 10 mM MgAcetate and [g-33P-ATP] (specific activity approx. 500 cpm/pmol, concentration as required). The reaction is initiated by the addition of the MgATP mix. After incubation for 40 minutes at room temperature, the reaction is stopped by the addition of 5 μL of a 3% phosphoric acid solution. 10 μL of the reaction is then spotted onto a P30 filtermat and washed three times for 5 minutes in 75 mM phosphoric acid and once in methanol prior to drying and scintillation counting.

Chain of c-SRC (h) (P12931 whole entry): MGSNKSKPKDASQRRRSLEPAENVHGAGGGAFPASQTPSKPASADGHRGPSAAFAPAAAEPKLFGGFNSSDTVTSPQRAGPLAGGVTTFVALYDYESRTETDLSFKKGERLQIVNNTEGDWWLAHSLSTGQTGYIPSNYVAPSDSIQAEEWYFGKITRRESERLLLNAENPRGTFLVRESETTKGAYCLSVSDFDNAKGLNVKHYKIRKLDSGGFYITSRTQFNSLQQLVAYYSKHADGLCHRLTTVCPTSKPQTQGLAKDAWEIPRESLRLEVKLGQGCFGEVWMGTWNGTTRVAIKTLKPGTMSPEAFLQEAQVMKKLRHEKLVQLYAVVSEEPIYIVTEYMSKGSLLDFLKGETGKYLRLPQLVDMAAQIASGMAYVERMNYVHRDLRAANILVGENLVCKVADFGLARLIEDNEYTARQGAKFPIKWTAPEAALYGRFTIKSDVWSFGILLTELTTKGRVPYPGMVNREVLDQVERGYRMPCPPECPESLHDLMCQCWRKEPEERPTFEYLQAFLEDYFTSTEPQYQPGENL

Row | SMILES | inhibition at 10 µM
1 | Cc1nc(Nc2ncc(C(=O)Nc3c(C)cccc3Cl)o2)nc(N2CCNCC2)n1 [Example 38] | > 90%
2 | CCc1nc(Nc2ncc(C(=O)Nc3c(C)cccc3Cl)o2)nc(N2CCN(CCO)CC2)n1 [Example 40] | > 90%
3 | CCc1nc(Nc2nnc(C(=O)Nc3c(C)cccc3Cl)o2)nc(N2CCN(CCO)CC2)n1 [Example 52] | < 50%
4 | CCc1nc(Nc2ncc(C(=O)Nc3c(C)cccc3Cl)n2C)nc(N2CCN(C)CC2)n1 [Example 59] | > 90%
5 | CCc1nc(NCCN(C)C)nc(Nc2ncc(C(=O)NC3CC3)s2)n1 [Example 63] | < 50%
6 | CCc1nc(NCCN(C)C)nc(Nc2ncc(C(=O)NC(C)C)s2)n1 [Example 67] | < 50%
7 | CCc1nc(NCCN(C)C)nc(Nc2ncc(C(=O)Nc3c(C)cc(C)cc3C)s2)n1 [Example 75] | > 90%
8 | CCc1nc(NCCN(C)C)nc(Nc2ncc(C(=O)Nc3ccccc3)s2)n1 [Example 79] | 50 to 90%
9 | CN1CCN(c2ncnc(Nc3ncc(CC(=O)Nc4cccc(F)c4)s3)n2)CC1 [Example 88] | < 50%
10 | O=C(Cc1cnc(Nc2ncnc(N3CCCCC3)n2)s1)Nc1cccc(F)c1 [Example 89] | < 50%
11 | Cc1cccc(Cl)c1NC(=O)Cc1cnc(Nc2ncnc(N3CCN(C)CC3)n2)s1 [Example 92] | < 50%
12 | CCc1nc(Nc2ncc(CC(=O)Nc3c(C)cccc3Cl)s2)nc(N2CCN(CCO)CC2)n1 [Example 93] | < 50%
13 | CN1CCN(c2ncnc(Nc3cc(CC(=O)Nc4cccc(F)c4)[nH]n3)n2)CC1 [Example 104] | < 50%
14 | CN(C)CCCOc1ncnc(Nc2cc(CC(=O)Nc3cccc(F)c3)[nH]n2)n1 [Example 105] | < 50%
15 | Cc1cccc(Cl)c1NC(=O)Cc1cc(Nc2ncnc(N3CCN(C)CC3)n2)n[nH]1 [Example 106] | < 50%
16 | Cc1cccc(Cl)c1NC(=O)Cc1cc(Nc2ncnc(OCCCN(C)C)n2)n[nH]1 [Example 107] | < 50%
17 | CN1CCN(c2ncnc(Nc3cc(CC(=O)NCc4ccc(F)cc4)[nH]n3)n2)CC1 [Example 108] | < 50%
18 | CN(C)CCCOc1ncnc(Nc2cc(CC(=O)NCc3ccc(F)cc3)[nH]n2)n1 [Example 109] | < 50%
19 | CN(C)CCN(C)c1ncnc(Nc2cc(CC(=O)Nc3cccc(F)c3)[nH]n2)n1 [Example 110] | < 50%
20 | COCC(C)Nc1ncnc(Nc2cc(CC(=O)Nc3cccc(F)c3)[nH]n2)n1 (centres unmarked) [Example 111] | < 50%
21 | O=C(Cc1cc(Nc2ncnc(Nc3ccccc3)n2)n[nH]1)Nc1cccc(F)c1 [Example 113] | < 50%

Other lines, results leading:

Row | inhibition at 10 µM | SMILES
22 | > 90% | Cc1nc(Nc2ncc(C(=O)Nc3c(C)cccc3Cl)s2)nc(N2CCN(CCO)CC2)n1 [Example 5]
23 | > 90% | Cc1nc(Nc2ncc(C(=O)Nc3c(C)cccc3Cl)s2)nc(N2CCN(C)CC2)n1 [Example 7]
24 | > 90% | Cc1nc(Nc2ncc(C(=O)Nc3c(C)cccc3Cl)s2)nc(N2CCN(Cc3ccncc3)CC2)n1 [Example 10]
25 | > 90% | Cc1nc(Nc2ncc(C(=O)Nc3c(C)cccc3Cl)s2)nc(N2CCC(CO)CC2)n1 [Example 11]
26 | > 90% | Cc1nc(Nc2ncc(C(=O)Nc3c(C)cccc3Cl)s2)nc(N2CCNCC2)n1 [Example 13]
27 | > 90% | Cc1nc(Nc2ncc(C(=O)Nc3c(C)cccc3Cl)s2)nc(N2CCN(CCC#N)CC2)n1 [Example 14]
28 | > 90% | Cc1nc(Nc2ncc(C(=O)Nc3c(C)cccc3Cl)s2)nc(N2CCN(c3ccccc3)CC2)n1 [Example 17]
29 | > 90% | Cc1nc(Nc2ncc(C(=O)Nc3c(C)cccc3Cl)s2)nc(N2CCN(c3cccc(C(F)(F)F)c3)CC2)n1 [Example 18]
30 | > 90% | Cc1nc(Nc2ncc(C(=O)Nc3c(C)cccc3Cl)s2)nc(N2CCNC(=O)C2)n1 [Example 19]
31 | > 90% | Cc1nc(NCCCn2ccnc2)nc(Nc2ncc(C(=O)Nc3c(C)cccc3Cl)s2)n1 [Example 20]
32 | > 90% | CCc1nc(Nc2ncc(C(=O)Nc3c(C)cccc3Cl)s2)nc(N2CCN(CCO)CC2)n1 [Example 23]
33 | > 90% | CCc1nc(Nc2ncc(C(=O)Nc3c(C)cccc3Cl)s2)nc(N2CCN(c3ccncc3)CC2)n1 [Example 24]
34 | > 90% | CCc1nc(Nc2ncc(C(=O)Nc3c(C)cccc3Cl)s2)nc(N2CCOCC2)n1 [Example 25]
35 | > 90% | CCc1nc(NCCN(C)C)nc(Nc2ncc(C(=O)Nc3c(C)cccc3Cl)s2)n1 [Example 26]
36 | > 90% | CCc1nc(NCCO)nc(Nc2ncc(C(=O)Nc3c(C)cccc3Cl)s2)n1 [Example 27]
37 | > 90% | CCc1nc(NCCCN2CCOCC2)nc(Nc2ncc(C(=O)Nc3c(C)cccc3Cl)s2)n1 [Example 28]
38 | > 90% | Cc1cccc(Cl)c1NC(=O)c1cnc(Nc2nc(-c3ccccc3)nc(N3CCN(CCO)CC3)n2)s1 [Example 31]
39 | > 90% | Cc1cccc(Cl)c1NC(=O)c1cnc(Nc2nc(CC(C)C)nc(N3CCN(CCO)CC3)n2)s1 [Example 34]
40 | > 90% | CCc1nc(NCCN(C)C)nc(Nc2ncc(C(=O)Nc3c(C)cccc3C)s2)n1 [Example 71]
41 | > 90% | CCc1nc(NCCN(CC)CC)nc(Nc2ncc(C(=O)Nc3c(C)cccc3Cl)s2)n1 [Example 94]
